What was measured:
[1] = Selectivity index, ratio of IC50 for rat L6 cells to IC50 for chloroquine/pyrimethamine resistant Plasmodium falciparum K1 infected in human red blood cells; assay type: toxicity, cell-based; conditions: read-out: Ratio IC50
[2] = Selectivity index, ratio of IC50 for rat L6 cells to IC50 for Trypanosoma brucei rhodesiense STIB 900 bloodstream forms; assay type: toxicity, cell-based; conditions: read-out: Ratio IC50
[3] = tested on: Trypanosoma brucei rhodesiense; experiment: Antitrypanosomal activity against Trypanosoma brucei rhodesiense STIB 900 bloodstream forms after 72 hrs by Alamar blue assay; assay type: functional, organism-based; conditions: STIB 900, 72 h
Plasmodium falciparum = experiment: Antiplasmodial activity against chloroquine/pyrimethamine resistant Plasmodium falciparum K1 infected in human red blood cells after 48 hrs by [3H]hypoxanthine incorporation assay; assay type: functional, organism-based
L6 = experiment: Cytotoxicity against rat L6 cells assessed as reduction in cell viability after 72 hrs by Alamar blue assay; assay type: cell-based; conditions: L6, 72 h

Work on `CN1CCN(CC(=O)N2CC3C(c4ccccc4)CC(N(C)C)(CC3c3ccccc3)C2)CC1` (racemic) yielded a selectivity ratio [1] of 21.5, a selectivity ratio [2] of 6.29 and an IC50 [3] of 1.47 µM. For the same molecule, the IC50 (Plasmodium falciparum) was 0.43 µM and the IC50 (L6) was 9.25 µM.
Work on `CN1CCN(CCCN2CC3C(c4ccccc4)CC(N(C)C)(CC3c3ccccc3)C2)CC1` (racemic) yielded a selectivity ratio [1] of 1.33, a selectivity ratio [2] of 1.82 and an IC50 [3] of 0.11 µM. It also gave an IC50 (Plasmodium falciparum) of 0.15 µM and an IC50 (L6) of 0.2 µM.
For `CN(C)C12CC(c3ccccc3)C(CN(CCCN3CCCCC3)C1)C(c1ccccc1)C2` (racemic), the selectivity ratio [1] was 9.21, the selectivity ratio [2] was 11.7 and the IC50 [3] was 0.15 µM. The IC50 (Plasmodium falciparum) was 0.19 µM and the IC50 (L6) was 1.75 µM.
With `CN(C)C12CC(c3ccccc3)C(CN(CCCN3CCCC3)C1)C(c1ccccc1)C2` (racemic) the selectivity ratio [1] was 10.3, the selectivity ratio [2] was 9.69 and the IC50 [3] was 0.16 µM. For the same molecule, the IC50 (Plasmodium falciparum) was 0.15 µM and the IC50 (L6) was 1.55 µM.
With `CN(C)C12CC(c3ccccc3)C(CN(CCN3CCCCC3)C1)C(c1ccccc1)C2` (racemic) the selectivity ratio [1] was 32.4, the selectivity ratio [2] was 24.3 and the IC50 [3] was 0.12 µM. It also gave an IC50 (Plasmodium falciparum) of 0.09 µM and an IC50 (L6) of 2.92 µM.
`CN(C)C12CC(c3ccccc3)C(CN(C(=O)CN3CCCC3)C1)C(c1ccccc1)C2` (racemic) gave a selectivity ratio [1] of 52.4, a selectivity ratio [2] of 5.82 and an IC50 [3] of 2.16 µM. The IC50 (Plasmodium falciparum) was 0.24 µM and the IC50 (L6) was 12.6 µM.
`C[C@@H]1CC[C@H]2[C@@H](C)C(=O)O[C@@H]3O[C@@]4(C)CC[C@@H]1[C@]32OO4` [ARTEMISININ] showed a selectivity ratio [1] of 70400 and an IC50 (Plasmodium falciparum) of 0.0064 µM.
`CN(C)C12CC(NC(=O)CN3CCCCC3)C(C(c3ccccc3)C1)C(c1ccccc1)C2` (racemic) showed a selectivity ratio [1] of 65.1, a selectivity ratio [2] of 14.9 and an IC50 [3] of 0.48 µM. The IC50 (Plasmodium falciparum) was 0.11 µM and the IC50 (L6) was 7.16 µM.
For `CN(C)C12CCN(C(=O)CN3CCCCC3)C(C(c3ccccc3)C1)C(c1ccccc1)C2` (stereo not drawn), the selectivity ratio [1] was 82.2, the selectivity ratio [2] was 14.9 and the IC50 [3] was 9.47 µM. It also gave an IC50 (Plasmodium falciparum) of 1.72 µM and an IC50 (L6) of 141 µM.
Molecule `CN1CCN(CCC(=O)N2CC3C(c4ccccc4)CC(N(C)C)(CC3c3ccccc3)C2)CC1` (racemic) has a selectivity ratio [1] of 72.1, a selectivity ratio [2] of 8.54 and an IC50 [3] of 1.52 µM. It also gave an IC50 (Plasmodium falciparum) of 0.18 µM and an IC50 (L6) of 13 µM.
Work on `CN(C)C12CC(c3ccccc3)C(CN(CCN3CCCC3)C1)C(c1ccccc1)C2` (racemic) yielded a selectivity ratio [1] of 19.2, a selectivity ratio [2] of 10.3 and an IC50 [3] of 0.54 µM. The IC50 (Plasmodium falciparum) was 0.29 µM and the IC50 (L6) was 5.58 µM.
For `CN(C)C12CC(c3ccccc3)C(CN(C(=O)CN3CCCCC3)C1)C(c1ccccc1)C2` (racemic), the selectivity ratio [1] was 30.3, the selectivity ratio [2] was 5.05 and the IC50 [3] was 2.4 µM. The IC50 (Plasmodium falciparum) was 0.4 µM and the IC50 (L6) was 12.1 µM.
In the case of `CN(C)C12CCN(CCN3CCCCC3)C(C(c3ccccc3)C1)C(c1ccccc1)C2` (racemic), the selectivity ratio [1] is reported as 155, the selectivity ratio [2] is reported as 51.6 and the IC50 [3] is reported as 2.62 µM. For the same molecule, the IC50 (Plasmodium falciparum) was 0.87 µM and the IC50 (L6) was 135 µM.
`CCN(CC)CC(=O)N1CCC2(N(C)C)CC(c3ccccc3)C1C(c1ccccc1)C2` (stereo not drawn) showed a selectivity ratio [1] of 68.9, a selectivity ratio [2] of 17.2 and an IC50 [3] of 5.21 µM. It also gave an IC50 (Plasmodium falciparum) of 1.3 µM and an IC50 (L6) of 89.6 µM.
In the case of `CCN(CC)CCN1CCC2(N(C)C)CC(c3ccccc3)C1C(c1ccccc1)C2` (racemic), the selectivity ratio [1] is reported as 142, the selectivity ratio [2] is reported as 56.5 and the IC50 [3] is reported as 1.79 µM. The IC50 (Plasmodium falciparum) was 0.71 µM and the IC50 (L6) was 101 µM.
`CN1CCN(CCN2CC3C(c4ccccc4)CC(N(C)C)(CC3c3ccccc3)C2)CC1` (racemic) gave a selectivity ratio [1] of 21, a selectivity ratio [2] of 19.5 and an IC50 [3] of 0.27 µM. For the same molecule, the IC50 (Plasmodium falciparum) was 0.25 µM and the IC50 (L6) was 5.26 µM.
`CN(C)C12CC(c3ccccc3)C(CN(C(=O)CCN3CCCCC3)C1)C(c1ccccc1)C2` (racemic) gave a selectivity ratio [1] of 238, a selectivity ratio [2] of 10.1 and an IC50 [3] of 1.23 µM. It also gave an IC50 (Plasmodium falciparum) of 0.052 µM and an IC50 (L6) of 12.4 µM.
For `Nc1nc(N)nc(Nc2ccc([As]3SCC(CO)S3)cc2)n1` (stereo not drawn) [MELARSOPROL], the selectivity ratio [2] was 2000.
`CCN(CC)CCCN1CC2C(c3ccccc3)CC(N(C)C)(CC2c2ccccc2)C1` (racemic) gave a selectivity ratio [1] of 50.3, a selectivity ratio [2] of 7.11 and an IC50 [3] of 0.46 µM. It also gave an IC50 (Plasmodium falciparum) of 0.065 µM and an IC50 (L6) of 3.27 µM.
`CN(C)C12CC(NC(=O)CCN3CCCCC3)C(C(c3ccccc3)C1)C(c1ccccc1)C2` (racemic) showed a selectivity ratio [1] of 11.4, a selectivity ratio [2] of 5.27 and an IC50 [3] of 1.49 µM. The IC50 (Plasmodium falciparum) was 0.69 µM and the IC50 (L6) was 7.85 µM.
`CCN(CC)CCC(=O)N1CC2C(c3ccccc3)CC(N(C)C)(CC2c2ccccc2)C1` (racemic) showed a selectivity ratio [1] of 39.6, a selectivity ratio [2] of 20.6 and an IC50 [3] of 1.46 µM. It also gave an IC50 (Plasmodium falciparum) of 0.39 µM and an IC50 (L6) of 15.4 µM.
`CN(C)C12CC(c3ccccc3)C(CN(C(=O)CCN3CCCC3)C1)C(c1ccccc1)C2` (racemic) showed a selectivity ratio [1] of 53.3, a selectivity ratio [2] of 7.46 and an IC50 [3] of 1.57 µM. It also gave an IC50 (Plasmodium falciparum) of 0.22 µM and an IC50 (L6) of 11.7 µM.

Reference: ChEMBL document CHEMBL3813611, “Antiprotozoal activity of bicycles featuring a dimethylamino group at their bridgehead” (Bioorg Med Chem, 2016)
